Tests used:
Hepatitis C virus = test: Antiviral activity against Hepatitis C virus genotype 1b in human HuH7 cells assessed as inhibition of viral replication after 72 hrs by luciferase reporter assay; format: functional, cell-based, Hepacivirus hominis; conditions: Huh-7, 72 h
[1] = Cytotoxicity against human HuH7 cells; format: cell-based, Huh-7
[2] = Therapeutic index, ratio of CC50 for human HuH7 cells to EC50 for Hepatitis C virus genotype 1b in human HuH7 cells; format: cell-based, Huh-7; conditions: read-out: Ratio CC50/EC50

| SMILES | EC50 (Hepatitis C virus) [µM] | CC50 [1] [µM] | selectivity ratio [2] |
| --- | --- | --- | --- |
| C#Cc1cc([C@@H]2O[C@H](CO)[C@@H](O)[C@@]2(C)O)n2ncnc(N)c12 | 0.17 | 0.93 |  |
| C[C@@]1(O)[C@H](O)[C@@H](CO)O[C@H]1c1cc(Cl)c2c(N)ncnn12 | 0.26 | 6.5 |  |
| C[C@@]1(O)[C@H](O)[C@@H](CO)O[C@H]1c1cc(-c2ncc[nH]2)c2c(N)ncnn12 | 0.69 | 27.1 |  |
| C[C@@]1(O)[C@H](O)[C@@H](CO)O[C@H]1c1ccc2c(N)ncnn12 |  | > 100 |  |
| C[C@@]1(O)[C@H](O)[C@@H](CO)O[C@H]1c1cnc2c(N)nc(F)nn12 | > 50 | > 100 |  |
| C[C@@]1(O)[C@H](O)[C@@H](CO)O[C@H]1c1cnc2c(N)ncnn12 |  | 26 |  |
| C[C@@]1(O)[C@H](O)[C@@H](CO)O[C@H]1c1cnc2c(N)nc(N)nn12 | > 50 | > 100 |  |

Continued, in another order:

| EC50 (Hepatitis C virus) [µM] | SMILES | CC50 [1] [µM] | selectivity ratio [2] |
| --- | --- | --- | --- |
| > 50 | C[C@@]1(O)[C@H](O)[C@@H](CO)O[C@H]1c1c(F)cc2c(N)ncnn12 | > 100 |  |
| 0.0062 | C[C@@]1(O)[C@H](O)[C@@H](CO)O[C@H]1c1cc(C(N)=O)c2c(N)ncnn12 | 0.37 |  |
| 1.8 | C[C@@]1(O)[C@H](O)[C@@H](CO)O[C@H]1c1cc(-c2ncco2)c2c(N)ncnn12 | 35.7 |  |
| > 50 | C[C@@]1(O)[C@H](O)[C@@H](CO)O[C@H]1c1cnc2c(N)nc(Cl)nn12 | > 100 |  |
| 3.1 | C[C@@]1(O)[C@H](O)[C@@H](CO)O[C@H]1c1cc(F)c2c(N)ncnn12 | > 100 | > 30 |
| 0.99 | C[C@@]1(O)[C@H](O)[C@@H](CO)O[C@H]1c1cc(C#N)c2c(N)ncnn12 | 22.1 |  |
| > 50 | C[C@@]1(O)[C@H](O)[C@@H](CO)O[C@H]1c1ccc2c(N)nc(N)nn12 | > 100 |  |

— ChEMBL document CHEMBL3351607, “Derivatives of imidazotriazine and pyrrolotriazine C-nucleosides as potential new anti-HCV agents” (Bioorg Med Chem Lett, 2014)
